Experiments:
[1] = test system: cumulus expansion of oocytectomised (OOX) complexes; experiment: FSH-induced cumulus expansion score of OOX complexes; assay type: cell-based, mice
Procedure: Members of the TGF-β superfamily are prime candidates for the mouse cumulus expansion-enabling factor (CEEF). This study was conducted to examine TGF-β superfamily processes regulating cumulus expansion. COCs were collected from eGG-primed mice and the oocyte microsurgically removed to generate oocytectomised (OOX) complexes. […] The type-I receptors for GDF9 and […] are ALK5 and ALK4, respectively. We tested the ability of an ALK4/5/7 kinase inhibitor to neutralize cumulus expansion.

cumulus cells [2] = experiment: Cumulus cell apoptosis in oocytectomized complexes (OOX) and COC, TUNEL with confocal microscopy; assay type: cell-based, Bovine
Procedure: Bovine ovaries were collected from local abattoir and transported to the laboratory in warm saline (30-35° C.). Cumulus-oocyte complexes (COC) were aspirated from antral follicles (2- to 8-mm diameter) using an 18-gauge needle and a 10-ml syringe containing ˜2 ml aspiration media (Hepes-buffered Tissue Cultured Medium-199: TCM-199, ICN Biochemicals, Irvine, Calif., USA) supplemented with 50 μg/ml kanamycin (Sigma-Aldrish, St. louis, Mo.), 4 mg/ml fatty acid-free bovine serum albumin (FAF-BSA) (ICPbio ltd, Auckland, NZ). Intact COC with compact cumulus vestment greater than five cell layers and evenly pigmented cytoplasm were selected under a dissecting microscope and washed twice in Hepes-buffered TCM-199 and once in corresponding culturing media.
The cytoplasm of each oocyte was microsurgically removed from the COC (oocytectomy) using a micromanipulator as described in Buccione et al (Buccione et al. (1990) Dev Biol 138, 16-25.). The resulting oocytectomized complex (OOX) consists of a hollow zona pellucida surrounded by several layers of intact CC.
Denuded oocytes (DO) were generated by removing CC from COC by vortexing for approximately 4 minutes in 2 ml H-TCM-199/BSA. Any remaining CC were removed by repeated passage of the oocytes through a fine-bore fire-polished glass pipette in H-TCM-199/BSA.
CC apoptoic DNA was detected using TUNEl (Roche Diagnostic, Penzberg, Germany) according to the manufacturer's instructions. Briefly, following culture COC and OOX complexes were washed twice in PBS (pH 7.4) containing 1% BSA, fixed in 4% paraformaldehyde in PBS (pH 7.4) overnight at 4° C. and washed twice with PBS/BSA before placing on Cell-Tak-coated coverslips (Beckton Dickinson Biosciences, Franklin lakes, N.J.). Complexes were then permeabilized in 0.11/u Triton X-100 in 0.1% sodium citrate for 1 hour at room temperature and washed 3 times in PBS/BSA. The complexes were then incubated in fluorescein-conjugated dUTP and terminal deoxynucleotide transferase (TUNEl reagents, Roche) for 1 hour at 37° C. in the dark. Positive controls were incubated in DNAse 1 (0.005 U/µl), which cleaves all DNA, for 20 minutes at room temperature and washed twice in PBS/BSA before TUNEl. Negative controls were incubated in fluorescein-dUTP in the absence of TdT. After TUNEl, complexes were washed twice in PBS/BSA and counterstained with propidium iodide 0.5 μg/ml (PI) plus RNase A (0.1 mg/ml) for 1 hour at room temperature in the dark to label all nuclei. Complexes were then washed twice in PBS/BSA and mounted with slight coverslip compression in VectaShield anti-bleaching solution (Vector labs, Burlingame, Calif.), and stored in the dark at 4° C. for confocal analysis.
Apoptosis in COC and OOX was visualised and quantified using confocal microscopy. Dual fluorescence emission from CC was detected using a Nikon C1 Confocal Scanning Head and a Nikon TE2000E microscope (Nikon, Tokyo, Japan). Simultaneous emission capture of the apoptotic signal (fluorescein, lacer excitation 488 nm, emission 510-530 nm) and the nuclear signal (propidium iodide, excitation lacer 532, emission 590-640 nm) was performed.
In order to generate an accurate representation of the overall apoptotic incidence for all complexes, the depth of each complex was measured through a Z series to divide the construct into three percentiles (optical Z plane sections) at 25%, 50% and 75%. These optical section images were acquired and saved as independent colour channels (green, apoptotic cumulus fluorescence and red, nuclear cumulus fluorescence). The captured images were then processed in Scanalytics IPlab software Version 3.6. (Scanalytics, Fairfax, Va.). Quantification of CC number (for each colour channel) was independently measured using a macro script utilizing an auto segmentation filter for each optical section percentile (3 optical “z”-plane sections for each complex).

cumulus-oocyte complexes = experiment: Study IV: oocyte developmental competence after IVM, IVF and embryo culture; assay type: cell-based, Bovine
Procedure: Unless otherwise specified, all chemicals and reagents were purchased from Sigma (St Louis, Mo.). Bovine ovaries were collected from local abattoirs and transported to the laboratory in warm saline (30-35° C.). COCs were aspirated from antral follicles (3 to 5 mm diameter) using an 18-gauge needle and a 10-ml syringe containing ˜2 ml aspiration medium (Hepes-buffered. Tissue Cultured Medium-199; TCM-199. ICN Biochemicals, Irvine, Calif., USA) supplemented with 50 μg/ml kanamycin, 0.5 mM sodium pyruvate, 50 μg/ml heparin and 4 mg/ml fatty acid-free bovine serum albumin (FAF-BSA; ICPbio Ltd, Aukland, NZ). Intact COCs with compact cumulus vestments>˜5 cell layers and evenly pigmented cytoplasm were selected under a dissecting microscope and washed twice in Hepes-buffered TCM-199 and once in Hepes-buffered TCM-199 supplemented with 10% fetal calf serim (FCS) (Invitrogen, Carlsbad, Calif.). The basic medium for oocyte maturation was Bovine VitroMat (Cook Australia, Eight Mile Plains, Qld, Australia), a medium based on the ionic composition of bovine follicular fluid. […] Complexes were cultured in pre-equilibrated 300 ? l drops overlaid with mineral oil and incubated at 39° C. with 5% CO2 in humidified air for 24 hour. […]
Recombinant mouse GDF9 and recombinant ovine BMP15 were produced and partially purified in-house as previously described using transfected 293 human embryonic kidney cell lines (293H) originally donated by O. Ritvos (University of Helsinki). Control conditioned medium (hereafter designated ‘293H’) was produced from untransfected 293H cells and subjected to the same chromatography procedures as GDF9 and BMP15 conditioned media.
Consequently, SB-431542 potently antagonizes the ALK 4/5 ligands; TGF-β1, the activins and GDF9, without affecting BMP signalling (Inman et al., 2002; Gilchrist et al., 2006). […] Follistatin-288 was generously donated by S. Shimasaki (University of California San Diego, USA) and we have previously shown that this binding protein antagonizes the bioactivities of native OSFs and recombinant BMP15 in CCs.
In vitro production of embryos was undertaken using defined, serum-free media (Bovine Vitro series of media, Cook Australia). Frozen semen from a single bull of proven fertility was used in all experiments. Briefly, thawed semen was layered over a discontinuous (45%: 90%) Percoll gradient (Amersham Bioscience) and centrifuged (RT) for 20-25 mins at 700 g. The supernatant was removed and the sperm pellet was washed with 500 μl Bovine VitroWash (Cook Australia) and centrifuged for a further 5 minutes at 200 g. Spermatozoa were resuspended with IVF medium (Bovine VitroFert, Cook Australia), then added to the fertilization media drops (Bovine VitroFert, supplemented with 0.01 mM heparin, 0.2 mM penicillamine and 0.1 mM hypotaurine) at a final concentration of 1×106 spermatozoa/ml. COCs were inseminated at a density of 10 μl of IVF medium per COC for 24 h, at 39° C. in 6% CO2 in humidified air.
CCs were removed by gentle pipetting 23-24 h post insemination and five presumptive zygotes were transferred into 20 μl drops of pre-equilibrated Cook Bovine VitroCleave medium (Cook Australia) and cultured under mineral oil at 38.5° C. in 7% O2, 6% CO2, balance N2, for five days (day 1 to day 5).
On Day 5, embryos were transferred in groups of 5-6 to 20 μl drops of pre-equilibrated Bovine VitroBlast (Cook Australia) at 38.5° C. overlaid with mineral oil and cultured to Day 8. Embryos were assessed for quality at Day 8 according to the definitions presented in the Manual of the International Embryo Transfer Society (Stringfellow, 1998) and were performed independently and blinded by an experienced bovine embryologist.
Cell counts were performed using a modified version of the technique described by (Fouladi-Nashta et al., 2005). […]

cumulus cells [3] = experiment: Staurosporine-induced cumulus cell apoptosis in OOX (TUNEL); assay type: cell-based, Bovine; details: for incidence of CC apoptosis: OOX alone, without 41%; for CC apoptosis of treated OOX exposed to staurosporine: 10% BMP-15 or 10 ng/ml BMP-6
Procedure: CC apoptoic DNA was detected using TUNEl (Roche Diagnostic, Penzberg, Germany) according to the manufacturer's instructions. […] Complexes were then permeabilized in 0.11/u Triton X-100 in 0.1% sodium citrate for 1 hour at room temperature and washed 3 times in PBS/BSA. The complexes were then incubated in fluorescein-conjugated dUTP and terminal deoxynucleotide transferase (TUNEl reagents, Roche) for 1 hour at 37° C. in the dark. Positive controls were incubated in DNAse 1 (0.005 U/µl), which cleaves all DNA, for 20 minutes at room temperature and washed twice in PBS/BSA before TUNEl. Negative controls were incubated in fluorescein-dUTP in the absence of TdT. After TUNEl, complexes were washed twice in PBS/BSA and counterstained with propidium iodide 0.5 μg/ml (PI) plus RNase A (0.1 mg/ml) for 1 hour at room temperature in the dark to label all nuclei. Complexes were then washed twice in PBS/BSA and mounted with slight coverslip compression in VectaShield anti-bleaching solution (Vector labs, Burlingame, Calif.), and stored in the dark at 4° C. for confocal analysis. […] These optical section images were acquired and saved as independent colour channels (green, apoptotic cumulus fluorescence and red, nuclear cumulus fluorescence). The captured images were then processed in Scanalytics IPlab software Version 3.6. (Scanalytics, Fairfax, Va.). Quantification of CC number (for each colour channel) was independently measured using a macro script utilizing an auto segmentation filter for each optical section percentile (3 optical “z”-plane sections for each complex). A percentage of apoptotic nuclei were generated for each slice and the three percentile values were then averaged to achieve a representation of the total apoptotic nuclei percentage for the whole complex. These processes were repeated separately on each individual complex. A preliminary experiment was conducted to determine the apoptotic effect of staurosporine on bovine CC, which induced apoptosis in a dose-dependent manner (range; 0.1-100 μM, data not shown). The aim of this experiment was to determine whether OSF could prevent CC from undergoing apoptosis induced by staurosporine. OOX alone or co-cultured with 35 DO, 10 ng/ml BMP-6 or 10% (v/v) BMP-15, and were then exposed to either 0.1 μM or 1.0 μM staurospourine for the last 6 hours of the 24 hour incubation period. Three replicates of this experiment were carried out using 10 OOX per treatment group per replicate experiment.

follistatin [reference compound]
cumulus expansion score with follistatin ([1]; OOX complexes co-cultured with oocytes, no significant effect (p>0.05)): 2.7±0.2
cumulus expansion score with follistatin ([1]; response of OOX complexes to activin): 0
apoptosis of BMP-15-treated OOXs with antagonist (cumulus cells [2]; OOX + 10% v/v BMP-15, follistatin 0-100 μg/ml): dose-dependent increase in apoptosis
antagonism of the anti-apoptotic effects of oocytes on cumulus cells (cumulus cells [2]; OOX + 25 DO, 50 μg/ml follistatin or 20 μg/ml BMP-6 NAb alone): ~50%
blastocyst development of control COCs treated with antagonist (cumulus-oocyte complexes; 4 μM SB-431542 or 10 μg/ml follistatin-288, compared to untreated COCs): significantly (P<0.05) decreased
cleavage rate of oocytes (cumulus-oocyte complexes; 10 μg/ml follistatin-288 during IVM, regardless of BMP15 treatment, control 76.2±1.3, p=0.007, in %): 71.8±1.3
increase of blastocyst yields by GDF9 or BMP15 on addition of the respective antagonist (cumulus-oocyte complexes; SB-431542 against GDF9, follistatin against BMP15): ablated

CN[C@@H]1C[C@H]2O[C@@](C)([C@@H]1OC)n1c3ccccc3c3c4c(c5c6ccccc6n2c5c31)C(=O)NC4 [staurosporine, reference compound]
incidence of CC apoptosis (cumulus cells [3]; 0.1 μM staurosporine for the last 6 h of 24 h): 51%
incidence of CC apoptosis (cumulus cells [3]; 1.0 μM staurosporine for the last 6 h of 24 h): 74%

B1: BMP-6: Recombinant human BMP-6 obtained from R&D systems (protein, UniProt P22004 375-513, looked up)
Bone morphogenetic protein 6: SASSRRRQQSRNRSTQSQDVARVSSASDYNSSELKTACRKHELYVSFQDLGWQDWIIAPKGYAANYCDGECSFPLNAHMNATNHAIVQTLVHLMNPEYVPKPCCAPTKLNAISVLYFDDNSNVILKKYRNMVVRACGCH
effect on incidence of cumulus cell apoptosis (cumulus cells [2]; OOX cultured with increasing doses (GDF-9 0-175 ng/ml, BMP-6 0-100 ng/ml, BMP-15 0-20% v/v, 5-50 DO), presence or absence of FSH): significantly decreased
effect on CC apoptosis, test for additive effect (cumulus cells [2]; OOX treated with DO, 10 ng/ml BMP-6 and/or 10% v/v BMP-15): significantly (P<0.001) decreased
CC apoptosis of treated OOX exposed to staurosporine (cumulus cells [3]; 0.1 μM staurosporine): 21%
CC apoptosis of treated OOX exposed to staurosporine (cumulus cells [3]; 1 μM staurosporine): 31%

B2: gremlin: BMP antagonist (BMP-2, BMP-4, BMP-7) obtained from R&D systems (protein, UniProt O60565 25-184, looked up)
Gremlin-1: KKKGSQGAIPPPDKAQHNDSEQTQSPQQPGSRNRGRGQGRGTAMPGEEVLESSQEALHVTERKYLKRDWCKTQPLKQTIHEEGCNSRTIINRFCYGQCNSFYIPRHIRKEEGSFQSCSFCKPKKFTTMMVTLNCPELQPPTKKKRVTRVKQCRCISIDLD
antagonism of the inhibitory effect of BMP-7 on CC apoptosis (cumulus cells [2]; OOX + 100 ng/ml BMP-7, 2 μg/ml gremlin, not when BMP-15 was present): significantly (P<0.001) reversed
apoptosis of BMP-15-treated OOXs with antagonist (cumulus cells [2]; OOX + 10% BMP-15, increasing dose of gremlin (0-40 μg/ml)): not significantly increased

B3: activin A: TGF-β superfamily member, ligand of ALK4 (protein, UniProt P08476 311-426, looked up)
Inhibin beta A chain: GLECDGKVNICCKKQFFVSFKDIGWNDWIIAPSGYHANYCEGECPSHIAGTSGSSLSFHSTVINHYRMRGHSPFANLKSCCVPTKLRPMSMLYYDDGQNIIKKDIQNMIVEECGCS
modifications: Inhibin beta A chain
notes: TGF-β superfamily member, ligand of ALK4
cumulus expansion score ([1]; score 0 (no expansion) to +4 (maximum expansion), mean ±SEM, OOX complexes with FSH): 2.6±0.1

— patent US8530235B2, “Medium that supports culture of an oocyte and modulation of granulosa cell apoptosis” (Adelaide Research & Innovation Pty Ltd., priority 2005, dated 2013)
